{"source": "patent US20060264460A1", "about": "(Wyeth, priority 2005, published 2006)"}
{"biological_target": "T1, human Cot/Tpl2 kinase (Homo sapiens, UniProt P41279)", "T1 construct": "human Cot/Tpl2 kinase construct encoding residues 30-398; 6His (N); made in house; host or cells: Sf9 insect cells, baculovirus system (BD Biosciences)", "T1 sequence (P41279 30-398)": "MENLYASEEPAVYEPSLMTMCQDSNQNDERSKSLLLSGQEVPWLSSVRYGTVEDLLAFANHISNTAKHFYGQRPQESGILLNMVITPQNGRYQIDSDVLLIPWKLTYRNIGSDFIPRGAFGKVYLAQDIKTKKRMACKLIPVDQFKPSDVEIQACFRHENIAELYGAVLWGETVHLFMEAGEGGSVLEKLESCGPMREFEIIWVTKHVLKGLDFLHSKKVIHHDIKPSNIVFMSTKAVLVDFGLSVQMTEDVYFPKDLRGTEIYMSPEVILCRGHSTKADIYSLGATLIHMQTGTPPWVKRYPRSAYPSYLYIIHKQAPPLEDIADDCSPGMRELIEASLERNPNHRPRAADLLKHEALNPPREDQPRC", "assay": "Tpl2/Cot kinase assay: GST-MEK1 phosphorylation detected by ELISA (DELFIA Eu)", "assay_type": "biochemical", "settings": "0.4 nM Tpl2, 35 nM GST-MEK1, 50 uM ATP, 1 h at 30° C.", "how_it_was_run": "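Substrate phosphorylation (GST-MEK1 Ser217/221) quantified by DELFIA europium ELISA, yielding IC50 values. Reaction: 1 h at 30° C, pH 7.2 MOPS buffer, 50 uM ATP, 35 nM GST-MEK1, 0.4 nM monomeric His-Tpl2 purified from Sf9 cells, compounds at 1% final DMSO; stopped with EDTA.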", "units": {"IC50": "nM"}}
{"smiles": "N#Cc1cnc2c(-c3ccsc3)cc(NCc3cccnc3)cc2c1Nc1cccc(Cl)c1", "note": "[Example 100, 4-(3-chlorophenylamino)-6-(pyridin-3-ylmethylamino)-8-(thiophen-3-yl)quinoline-3-carbonitrile]", "IC50": "> 40000"}
{"smiles": "N#Cc1cnc2c(Br)cc(NCc3cccc[n+]3[O-])cc2c1Nc1ccc(F)c(Cl)c1", "note": "[Example 101, 8-bromo-4-(3-chloro-4-fluorophenylamino)-6-(1-oxypyridin-2-ylmethylamino)quinoline-3-carbonitrile]", "IC50": 4.1}
{"smiles": "N#Cc1cnc2c(-c3ccoc3)cc(NCc3cccnc3)cc2c1Nc1ccc(F)c(Cl)c1", "note": "[Example 102, 4-(3-chloro-4-fluorophenylamino)-8-(furan-3-yl)-6-(pyridin-3-ylmethylamino)quinoline-3-carbonitrile]", "IC50": 1300}
{"smiles": "CN(C)C(=O)CNc1ccc2ncc(C#N)c(Nc3ccc(F)c(Cl)c3)c2c1", "note": "[Example 103, 2-(4-(3-chloro-4-fluorophenylamino)-3-cyanoquinolin-6-ylamino)-N,N-dimethylacetamide]", "IC50": 510}
{"smiles": "CC(C)(C)Nc1c(C#N)cnc2c(Br)cc(NCc3cccc[n+]3[O-])cc12", "note": "[Example 104, 8-bromo-4-(tert-butylamino)-6-(1-oxypyridin-2-ylmethylamino)quinoline-3-carbonitrile]", "IC50": 1500}
{"smiles": "Cc1ncc(CNc2cc(Br)c3ncc(C#N)c(Nc4ccc(F)c(Cl)c4)c3c2)[nH]1", "note": "[Example 105, 8-bromo-4-(3-chloro-4-fluorophenylamino)-6-((2-methyl-1H-imidazol-5-yl)methylamino)quinoline-3-carbonitrile]", "IC50": 170}
{"smiles": "N#Cc1cnc2c(Br)cc(NCc3cnc(-c4ccccc4)[nH]3)cc2c1Nc1ccc(F)c(Cl)c1", "note": "[Example 106, 8-bromo-4-(3-chloro-4-fluorophenylamino)-6-((2-phenyl-1H-imidazol-5-yl)methylamino)quinoline-3-carbonitrile]", "IC50": 5900}
{"smiles": "CCCCc1ncc(CNc2cc(Br)c3ncc(C#N)c(Nc4ccc(F)c(Cl)c4)c3c2)[nH]1", "note": "[Example 107, 8-bromo-6-((2-butyl-1H-imidazol-5-yl)methylamino)-4-(3-chloro-4-fluorophenylamino)quinoline-3-carbonitrile]", "IC50": 900}
{"smiles": "CNC(=O)CNc1ccc2ncc(C#N)c(Nc3ccc(F)c(Cl)c3)c2c1", "note": "[Example 108, 2-(4-(3-chloro-4-fluorophenylamino)-3-cyanoquinolin-6-ylamino)-N-methylacetamide]", "IC50": 550}
{"smiles": "C/C=C/c1cc(NCc2cccnc2)cc2c(Nc3ccc(F)c(Cl)c3)c(C#N)cnc12", "note": "[Example 109, (E)-4-(3-chloro-4-fluorophenylamino)-8-(prop-1-enyl)-6-(pyridin-3-ylmethylamino)quinoline-3-carbonitrile]", "IC50": 2200}
{"smiles": "COC(=O)c1nc[nH]c1CNc1cc(Br)c2ncc(C#N)c(Nc3ccc(F)c(Cl)c3)c2c1", "note": "[Example 110, Methyl 5-((8-bromo-4-(3-chloro-4-fluorophenylamino)-3-cyanoquinolin-6-ylamino)methyl)-1H-imidazole-4-carboxylate]", "IC50": 87}
{"smiles": "N#Cc1cnc2c(Br)cc(NCc3[nH]cnc3-c3ccccc3)cc2c1Nc1ccc(F)c(Cl)c1", "note": "[Example 111, 8-bromo-4-(3-chloro-4-fluorophenylamino)-6-((4-phenyl-1H-imidazol-5-yl)methylamino)quinoline-3-carbonitrile]", "IC50": 33}
{"smiles": "CCc1nc[nH]c1CNc1cc(Br)c2ncc(C#N)c(Nc3ccc(F)c(Cl)c3)c2c1", "note": "[Example 112, 8-bromo-4-(3-chloro-4-fluorophenylamino)-6-((4-ethyl-1H-imidazol-5-yl)methylamino)quinoline-3-carbonitrile]", "IC50": 3.5}
{"smiles": "Cc1c(CNc2cc(Br)c3ncc(C#N)c(Nc4ccc(F)c(Cl)c4)c3c2)ncn1C", "note": "[Example 113, 8-bromo-4-(3-chloro-4-fluorophenylamino)-6-((1,5-dimethyl-1H-imidazol-4-yl)methylamino)quinoline-3-carbonitrile]", "IC50": 10}
